Assays:
Test in all cases: Post-emergence efficacy, glasshouse pot test
Assay type in all cases: in vivo
Settings in all cases: post-emergence application, evaluated after 13 days
[1] = test system: Amaranthus retoflexus (AMARE)
Procedure: (§1) B1 Post-Emergence Efficacy Seeds of a variety of test species are sown in standard soil in pots:—Solanum nigrum (SOLNI), Amaranthus retoflexus (AMARE), Setaria faberi (SETFA), Alopecurus myosuroides (ALOMY), Echinochloa crus-galli (ECHCG), Ipomoea hederacea (IPOHE), Lolium perenne (LOLPE). After 8 days cultivation (post-emergence) under controlled conditions in a glasshouse (at 24/16° C., day/night; 14 hours light; 65% humidity), the plants are sprayed with an aqueous spray solution derived from the formulation of the technical active ingredient in acetone/water (50:50) solution containing 0.5% Tween 20 (polyoxyethylene sorbitan monolaurate, CAS RN 9005-64-5). Compounds are applied at 1000 g/ha and 250 g/ha. The test plants are then grown in a glasshouse under controlled conditions in a glasshouse (at 24/16° C., day/night; 14 hours light; 65% humidity) and watered twice daily. After 13 days, the test is evaluated for the percentage damage caused to the plant. The biological activities are assessed on a five point scale (5=80-100%; 4=60-79%; 3=40-59%; 2=20-39%; 1=0-19%).

[2] = test system: Echinochloa crus-galli (ECHCG)
Procedure: as §1

[3] = test system: Ipomoea hederacea (IPOHE)
Procedure: as §1

[4] = test system: Lolium perenne (LOLPE)
Procedure: as §1

[5] = test system: Setaria faberi (SETFA)
Procedure: as §1

[6] = test system: Solanum nigrum (SOLNI)
Procedure: as §1

In the case of `O=c1c(-c2c(Cl)ccc(Cl)c2OCc2cnc(Cl)s2)c(O)c2nccnc2n1CC(F)F` [Compound 11.19], the “percentage damage caused to the plant, five point scale, AMARE” value (“percentage damage caused … AMARE” below) ([1]; 250 g/ha) is reported as 5 (5=80-100%), the “percentage damage caused … AMARE” value ([1]; 1000 g/ha) is reported as 5 (5=80-100%) and the “percentage damage caused to the plant, five point scale, ECHCG” value (“percentage damage caused … ECHCG” for short) ([2]; 250 g/ha) is reported as 5 (5=80-100%). The “percentage damage caused … ECHCG” value ([2]; 1000 g/ha) was 4 (4=60-79%), the “percentage damage caused to the plant, five point scale, IPOHE” value (from here on “percentage damage caused … IPOHE”) ([3]; 250 g/ha) was 5 (5=80-100%) and the “percentage damage caused … IPOHE” value ([3]; 1000 g/ha) was 5 (5=80-100%). The “percentage damage caused to the plant, five point scale, LOLPE” value (from here on “percentage damage caused … LOLPE”) ([4]; 250 g/ha) was 5 (5=80-100%), the “percentage damage caused … LOLPE” value ([4]; 1000 g/ha) was 5 (5=80-100%) and the “percentage damage caused to the plant, five point scale, SETFA” value (from here on “percentage damage caused … SETFA”) ([5]; 250 g/ha) was 4 (4=60-79%). For the same molecule, the “percentage damage caused … SETFA” value ([5]; 1000 g/ha) was 5 (5=80-100%), the “percentage damage caused to the plant, five point scale, SOLNI” value (from here on “percentage damage caused … SOLNI”) ([6]; 250 g/ha) was 5 (5=80-100%) and the “percentage damage caused … SOLNI” value ([6]; 1000 g/ha) was 5 (5=80-100%).

For `C#CCn1c(=O)c(-c2c(Cl)ccc(Cl)c2OCc2cnc(Cl)s2)c(O)c2nccnc21` [Compound 9.19, 7-[3,6-dichloro-2-[(2-chlorothiazol-5-yl)methoxy]phenyl]-8-hydroxy-5-prop-2-ynyl-pyrido[2,3-b]pyrazin-6-one], the “percentage damage caused … AMARE” value ([1]; 250 g/ha) was 5 (5=80-100%), the “percentage damage caused … AMARE” value ([1]; 1000 g/ha) was 5 (5=80-100%) and the “percentage damage caused … ECHCG” value ([2]; 250 g/ha) was 5 (5=80-100%). For the same molecule, the “percentage damage caused … ECHCG” value ([2]; 1000 g/ha) was 5 (5=80-100%), the “percentage damage caused … IPOHE” value ([3]; 250 g/ha) was 5 (5=80-100%) and the “percentage damage caused … IPOHE” value ([3]; 1000 g/ha) was 5 (5=80-100%). The “percentage damage caused … LOLPE” value ([4]; 250 g/ha) was 5 (5=80-100%), the “percentage damage caused … LOLPE” value ([4]; 1000 g/ha) was 5 (5=80-100%) and the “percentage damage caused … SETFA” value ([5]; 250 g/ha) was 5 (5=80-100%). For the same molecule, the “percentage damage caused … SETFA” value ([5]; 1000 g/ha) was 5 (5=80-100%), the “percentage damage caused … SOLNI” value ([6]; 250 g/ha) was 5 (5=80-100%) and the “percentage damage caused … SOLNI” value ([6]; 1000 g/ha) was 5 (5=80-100%).

`C#CCn1c(=O)c(-c2c(Cl)ccc(Cl)c2OCc2cnc(Cl)s2)c(O)c2cccnc21` [Compound 1.19] was tested, and the “percentage damage caused … AMARE” value ([1]; 250 g/ha) was 4 (4=60-79%), the “percentage damage caused … AMARE” value ([1]; 1000 g/ha) was 5 (5=80-100%) and the “percentage damage caused … ECHCG” value ([2]; 250 g/ha) was 3 (3=40-59%). For the same molecule, the “percentage damage caused … ECHCG” value ([2]; 1000 g/ha) was 5 (5=80-100%), the “percentage damage caused … IPOHE” value ([3]; 250 g/ha) was 5 (5=80-100%) and the “percentage damage caused … IPOHE” value ([3]; 1000 g/ha) was 5 (5=80-100%). For the same molecule, the “percentage damage caused … LOLPE” value ([4]; 250 g/ha) was 5 (5=80-100%), the “percentage damage caused … LOLPE” value ([4]; 1000 g/ha) was 5 (5=80-100%) and the “percentage damage caused … SETFA” value ([5]; 250 g/ha) was 4 (4=60-79%). The “percentage damage caused … SETFA” value ([5]; 1000 g/ha) was 5 (5=80-100%), the “percentage damage caused … SOLNI” value ([6]; 250 g/ha) was 5 (5=80-100%) and the “percentage damage caused … SOLNI” value ([6]; 1000 g/ha) was 5 (5=80-100%).

With `O=c1c(-c2c(Cl)ccc(Cl)c2OCc2cnc(Cl)s2)c(O)c2cccnc2n1CC(F)F` [Compound 3.19] the “percentage damage caused … AMARE” value ([1]; 250 g/ha) was 5 (5=80-100%), the “percentage damage caused … AMARE” value ([1]; 1000 g/ha) was 5 (5=80-100%) and the “percentage damage caused … ECHCG” value ([2]; 250 g/ha) was 3 (3=40-59%). The “percentage damage caused … ECHCG” value ([2]; 1000 g/ha) was 4 (4=60-79%), the “percentage damage caused … IPOHE” value ([3]; 250 g/ha) was 5 (5=80-100%) and the “percentage damage caused … IPOHE” value ([3]; 1000 g/ha) was 5 (5=80-100%). The “percentage damage caused … LOLPE” value ([4]; 250 g/ha) was 4 (4=60-79%), the “percentage damage caused … LOLPE” value ([4]; 1000 g/ha) was 5 (5=80-100%) and the “percentage damage caused … SETFA” value ([5]; 250 g/ha) was 4 (4=60-79%). The “percentage damage caused … SETFA” value ([5]; 1000 g/ha) was 5 (5=80-100%), the “percentage damage caused … SOLNI” value ([6]; 250 g/ha) was 5 (5=80-100%) and the “percentage damage caused … SOLNI” value ([6]; 1000 g/ha) was 5 (5=80-100%).

`COc1ccnc2c1c(O)c(-c1c(Cl)ccc(Cl)c1OCc1cnc(Cl)s1)c(=O)n2CC(F)F` [Compound 19.19] was tested, and the “percentage damage caused … AMARE” value ([1]; 250 g/ha) was 5 (5=80-100%), the “percentage damage caused … AMARE” value ([1]; 1000 g/ha) was 5 (5=80-100%) and the “percentage damage caused … ECHCG” value ([2]; 250 g/ha) was 5 (5=80-100%). The “percentage damage caused … ECHCG” value ([2]; 1000 g/ha) was 5 (5=80-100%), the “percentage damage caused … IPOHE” value ([3]; 250 g/ha) was 5 (5=80-100%) and the “percentage damage caused … IPOHE” value ([3]; 1000 g/ha) was 5 (5=80-100%). For the same molecule, the “percentage damage caused … LOLPE” value ([4]; 250 g/ha) was 4 (4=60-79%), the “percentage damage caused … LOLPE” value ([4]; 1000 g/ha) was 5 (5=80-100%) and the “percentage damage caused … SETFA” value ([5]; 250 g/ha) was 5 (5=80-100%). The “percentage damage caused … SETFA” value ([5]; 1000 g/ha) was 5 (5=80-100%), the “percentage damage caused … SOLNI” value ([6]; 250 g/ha) was 5 (5=80-100%) and the “percentage damage caused … SOLNI” value ([6]; 1000 g/ha) was 5 (5=80-100%).

For `C#CCn1c(=O)c(-c2c(Cl)ccc(Cl)c2OCc2cnc(Cl)s2)c(O)c2c(OC)ccnc21` [Compound 17.19], the “percentage damage caused … AMARE” value ([1]; 250 g/ha) was 5 (5=80-100%), the “percentage damage caused … AMARE” value ([1]; 1000 g/ha) was 5 (5=80-100%) and the “percentage damage caused … ECHCG” value ([2]; 250 g/ha) was 5 (5=80-100%). The “percentage damage caused … ECHCG” value ([2]; 1000 g/ha) was 5 (5=80-100%), the “percentage damage caused … IPOHE” value ([3]; 250 g/ha) was 5 (5=80-100%) and the “percentage damage caused … IPOHE” value ([3]; 1000 g/ha) was 5 (5=80-100%). The “percentage damage caused … LOLPE” value ([4]; 250 g/ha) was 4 (4=60-79%), the “percentage damage caused … LOLPE” value ([4]; 1000 g/ha) was 5 (5=80-100%) and the “percentage damage caused … SETFA” value ([5]; 250 g/ha) was 5 (5=80-100%). For the same molecule, the “percentage damage caused … SETFA” value ([5]; 1000 g/ha) was 5 (5=80-100%), the “percentage damage caused … SOLNI” value ([6]; 250 g/ha) was 5 (5=80-100%) and the “percentage damage caused … SOLNI” value ([6]; 1000 g/ha) was 5 (5=80-100%).
